In article PMC7385176, “Engineering a disulfide-gated switch in streptavidin enables reversible binding without sacrificing binding affinity” (Scientific Reports, 2020):
Where two headings read alike, the source gives them in different places.

Legend:
[1] = Biotin-4-fluorescein off-rate assay (competitive, fluorescence quenching; Arrhenius extrapolation)
Method: Dissociation kinetics were measured with a competitive assay exploiting the fluorescence quenching of B4F upon binding to streptavidin[13],[30]. In a total volume of 200 μL, 50 nM streptavidin, 10 nM B4F (Invitrogen), 50 mM NaCl, 1 mM EDTA, 20 mM Tris pH 8, were incubated for 30 min. Biotin was added to 0.1 mM to prevent B4F re-association and fluorescence was monitored using a Tecan Infinite M200 plate reader with 485 nm excitation/525 nm emission for 12 h at 25 °C. The maximum, with all B4F unbound, and minimum, with all B4F bound, fluorescence was determined with similar mixtures in the absence of either streptavidin or biotin, respectively, and the fraction of B4F released at each time point was calculated as %B4FReleased=response-min/max-min×100% . […] The rapid phase was ignored and off-rate constants were determined by nonlinear least squares fitting of the data to the single exponential function y=1-e^kt .
High-temperature kinetics were measured by the same competitive assay but instead using a Horiba Jobin–Yvon FluoroMax-4 spectrofluorometer. To limit evaporation and condensation within the cuvette, it was filled to the top with 4 mL of solution using the same concentrations of reagents as above. Fluorescence was initially measured without streptavidin, giving the maximum, unquenched signal. Streptavidin was then added and allowed to equilibrate until a constant fluorescent signal was achieved, and unlabelled biotin was added to start the experiment. At these higher temperatures, the rapid release phase was more apparent and accounted for by fitting the data to the double exponential function y=max-ae^-kat-be^-kbt. The linear Arrhenius plot was generated by plotting ln(koff) against 1/temperature. A linear least squares fit to the function lnkoff=lnA-Ea/RT was used to extrapolate the dissociation constant at lower temperatures.

[2] = Thermostability assay (heating in SDS, SDS-PAGE of tetramer); assay type: physicochemical; settings: for denaturation of the tetramer: presence of biotin
Method: To assess thermostability, SDS was added to 2% to wild-type or previously oxidized M88 or M112 and was incubated in the presence or absence of 5 mM biotin and in the presence and absence of 200 mM β-mercaptoethanol for 15 min. The samples were heated at 75 or 95 °C for 1 h and aliquots taken every 5 min for the first 30 min, and then at 45 and 60 min. Samples from each time point were run on a 12% SDS-PAGE gel, which were than stained with Coomassie blue. Band intensity was quantified using ImageJ software and the fraction of protein that remained tetrameric was determined relative to time zero. The band intensities for a series of standards was determined to indicate the linear range for quantification.

[3] = Biotin-4-fluorescein on-rate assay; assay type: binding; settings: 25 °C
Method: Association kinetics were also monitored by utilizing B4F. […] 20 μL streptavidin was added and measurements were started immediately on a Horiba FluoroMax-4 spectrofluorometer with 490 nm excitation/525 nm emission and 2 and 15 nm slit widths, respectively, for the monochromator. Protein concentrations used were: 0.4, 0.8, 1.6, 2.4, 3.2 nM for wt; 0.8, 1.6, 3.2, 6.4 nM for oxidized M112; 0.4, 0.8, 1.6, 3.2 nM for reduced M112; 0.77, 1.5, 3.1, 6.1 nM for reduced M88 and 6.25, 12.5, 25, 50 nM for traptavidin. For oxidized M88, measurements were done in 60 μL total volume using 10 nM B4F and 50, 100, 200 and 400 nM M88.

[4] = Rate of disulfide bond formation (Alexa Fluor 633 maleimide labelling); assay type: physicochemical; settings: 10 mM GSSG
Excerpt: Protein disulfide bond formation was catalyzed by thiol-disulfide exchange with either oxidized glutathione (GSSG) or 2,2′-dipyridyldisulfide. Disulfide bonds were inferred by selectively labelling free Cys with Alexa Fluor 633 C5 maleimide (Invitrogen) and subsequent separation by Tricine SDS-PAGE[50]. Detection is based on both fluorescence and a mobility shift due to the large size of these labels (~ 1.3 kDa each, ~ 2.6 kDa if both cysteines in M88 or M112 react). Ratios of reactants were based on those previously described for saturation labelling. Because the N- and C-terminal tails are susceptible to degradation by trace proteases, leading to band heterogeneity in the gel, core-form versions of M88 and M112 were primarily used for this assay. […] Immediately after the run, fluorescence was measured with excitation by 635 nm laser and emission collected through a 665 nm long-pass filter on a Typhoon FLA 9,500 laser scanner (GE Healthcare).
To measure the time course of disulfide formation, streptavidin muteins were reduced with TCEP which was subsequently removed by centrifugal filtration. […] Fluorescence intensity of each band was quantified using ImageQuant software and the amount off free Cys at each timepoint was determined relative to the initial amount. […]

[5] = cited from earlier work

Q: With “M88 oxidized: M88 (N49C/A86C streptavidin mutein) with the Cys-49/Cys-86 disulfide bond formed” as the substance, how does the “change in B4F fluorescence (dissociation)” value ([1]; 25 °C, after 12 h) read?
A: no change in B4F fluorescence measurable

Q: And the “rate of dissociation lower than wild-type streptavidin” value ([1]; 25 °C, extrapolated)?
A: 225 fold

Q: What about the “stability during kinetics measurement” value ([1]; 90 °C) of the same substance?
A: appeared to be stable

Q: And the “rate of dissociation relative to traptavidin” value ([1]; Arrhenius plot, 25–90 °C)?
A: approximately half

Q: And the t1/2 ([1]; B4F, 25 °C, calculated as ln(2)/koff)?
A: 18.3 ± 6.1 years

Q: And the koff ([1]; B4F, 25 °C, extrapolated from the Arrhenius plot)?
A: 1.2 ± 0.4 × 10^–9 s^-1

Q: And the “tetramer state after heating” value ([2]; 75 °C, without biotin, 60 min incubation)?
A: remains tetrameric

Q: What about the “denaturation of the tetramer” value ([2]; 95 °C, 60 min incubation) of the same substance?
A: no appreciable denaturation

Q: And the “decrease in rate of association compared to the reduced form of M88” value [3]?
A: 18.5 fold

Q: And the “decrease in rate of association compared to wild-type streptavidin” value [3]?
A: 117 fold

Q: And the kon ([3]; B4F, ± standard error)?
A: 4.6 ± 0.3 × 10^5 M^-1 s^-1

Q: Which “increase in rate of dissociation for B4F, oxidized vs reduced M112” value ([1]; 25 °C) does the source give for “M112: streptavidin mutein G26C/A46C with a Cys-26/Cys-46 disulfide bond on the N-terminal side of loop 3–4” here?
A: ~ 60 fold

Q: What about the “pseudo-first order rate constant of disulfide bond formation” value ([4]; 21 °C) of the same substance?
A: 0.14 ± 0.02 h⁻¹

Q: And the “pseudo-first order rate constant of disulfide bond formation” value ([4]; 37 °C)?
A: 0.41 ± 0.06 h⁻¹

Q: With “Wild-type: 66-kDa homotetrameric biotin-binding protein from Streptomyces avidinii; obtained from Bio Basic” as the substance, how does the “time to denature completely” value ([2]; 75 °C, absence of biotin) read?
A: ≤ 5 min

Q: And the “time to complete denaturation” value ([2]; 95 °C, biotin absent)?
A: less than 1 min

Q: And the “denaturation of the tetramer” value ([2]; 95 °C, 60 min incubation)?
A: no appreciable denaturation

Q: What about the melting temperature ([5]; apo-streptavidin) of the same substance?
A: 75.5 °C

Q: And the “state at boiling temperatures” value ([5]; presence of SDS)?
A: remains tetrameric and bound to biotin

Q: What about the melting temperature ([5]; streptavidin–biotin complex) of the same substance?
A: 112.2 °C
